Three molecules from patent US4041111A, “Phosphonate monoesters and method of preparation” (Purdue Research Foundation, priority 1975, dated 1977) can be followed below.

Series [1] addresses T1, purified bovine intestinal phosphodiesterase (Bos taurus, UniProt P15396).
T1 sequence (P15396 1-874): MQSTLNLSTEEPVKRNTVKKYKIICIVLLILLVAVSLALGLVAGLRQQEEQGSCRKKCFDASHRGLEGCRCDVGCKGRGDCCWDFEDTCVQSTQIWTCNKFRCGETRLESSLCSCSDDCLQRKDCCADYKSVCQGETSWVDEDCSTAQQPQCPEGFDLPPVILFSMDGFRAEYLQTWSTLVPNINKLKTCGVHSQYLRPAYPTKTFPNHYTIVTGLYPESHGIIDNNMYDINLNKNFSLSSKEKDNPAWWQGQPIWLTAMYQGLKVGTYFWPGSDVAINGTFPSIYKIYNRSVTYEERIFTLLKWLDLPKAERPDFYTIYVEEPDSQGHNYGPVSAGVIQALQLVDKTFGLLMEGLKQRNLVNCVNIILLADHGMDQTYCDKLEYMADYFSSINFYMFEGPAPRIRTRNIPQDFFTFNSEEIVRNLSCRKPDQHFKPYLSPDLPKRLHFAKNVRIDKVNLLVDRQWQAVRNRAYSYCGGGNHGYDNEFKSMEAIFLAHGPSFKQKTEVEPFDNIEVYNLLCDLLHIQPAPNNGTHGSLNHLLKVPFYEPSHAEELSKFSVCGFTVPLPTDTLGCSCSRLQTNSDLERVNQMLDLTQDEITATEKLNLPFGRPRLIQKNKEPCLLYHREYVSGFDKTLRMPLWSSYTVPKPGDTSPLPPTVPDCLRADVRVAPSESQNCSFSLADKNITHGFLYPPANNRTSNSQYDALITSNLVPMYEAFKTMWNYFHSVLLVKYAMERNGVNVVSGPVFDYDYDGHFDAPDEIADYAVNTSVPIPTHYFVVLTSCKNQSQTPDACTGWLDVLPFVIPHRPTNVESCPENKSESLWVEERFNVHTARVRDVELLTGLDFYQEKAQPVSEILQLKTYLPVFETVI
As to the kind of experiment: Kinetic parameters of hydrolysis by purified phosphonate monoesterase/phosphodiesterase of calf intestinal mucosa (Table VI). The format is biochemical, bovine (calf). The conditions noted are these: 0.1 M Tris pH 8.0, 30° C., 4-nitrophenol measured continuously at 400 nm. As to the method:
(§1) Enzymic hydrolysis of 4-nitrophenyl esters is quantitated spectrophotometrically by the appearance of the 4-nitrophenolate ion at 400 nm (ε=18,320 M^-^1 cm^-1, pK 7.15) (see Kezdy, F. J. and Bender, M. L., 1962, Biochemistry, Volume 1, page 1097), either continuously above pH 7.0 or discontinuously by raising the assay mixture to pH 9 and inactivating the enzyme by the addition of two volumes of 1 M NaHCO3, 10 mM Na3 PO4, 10 mM Na2 EDTA. Standard assay conditions are 1 mM 4-nitrophenyl phenylphosphonate, 0.1 M Tris, pH 8.0, 30° C.
^a Production of 4-nitrophenol was measured continuously at 400 nm in […]

Series [2] addresses T2, Type I phosphodiesterase, Bovine Intestine (Bos taurus, UniProt P15396).
T2 construct: from tissue; host or cells: bovine intestine
T2 sequence (P15396 1-874): T1 sequence (P15396 1-874)
Put plainly: Activity of Type I phosphodiesterase, bovine intestine (Table VII). The format is biochemical. Particulars: 1 mM 4-nitrophenyl ester of the named compound. On the procedure:
as §1
(§2) Table VII is a comparison of Type I and Type II Phosphodiesterase as follows:
(§3) Substrates were 1 mM solutions of the 4-nitrophenyl esters of the above

The subject of series [3] is Type I phosphodiesterase, Snake Venon. Put plainly: Activity of Type I phosphodiesterase, snake venom (Table VII). Type of series: biochemical. The conditions noted are these: 1 mM 4-nitrophenyl ester of the named compound. On the procedure:
as §1, §2, §3

Series [4] has as its system Type II phosphodiesterase, Bovine spleen. Put plainly: Activity of Type II phosphodiesterase, bovine spleen (Table VII). The conditions noted are these: 1 mM 4-nitrophenyl ester of the named compound. The format is biochemical. As to the method: as §1, §2, §3
Series [5] is described as follows: Stability and water solubility of phosphonate monoesters.

For the molecule `Cc1cn([C@H]2C[C@H](OP(=O)(O)Oc3ccc([N+](=O)[O-])cc3)[C@@H](CO)O2)c(=O)[nH]c1=O` [4-nitrophenyl 3'-TMP], in series [1], the Vmax came to 1 μmoles min^-^1 mg^-^1. Further, the results for the Activity in series [2], in series [3] and in series [4] were 569 nmoles min^-^1 mg^-^1, 1.9 nmoles min^-^1 mg^-^1 and 168 nmoles min^-^1 mg^-^1, respectively.

Regarding `Cc1cn([C@H]2C[C@H](O)[C@@H](COP(=O)(O)Oc3ccc([N+](=O)[O-])cc3)O2)c(=O)[nH]c1=O` [4-nitrophenyl 5'-TMP], the Activity in series [2] is listed as 65,700 nmoles min^-^1 mg^-^1; in series [3], 4570 nmoles min^-^1 mg^-^1; in series [4], 6.9 nmoles min^-^1 mg^-^1.

As for `O=[N+]([O-])c1ccc(OP(=O)(O)c2ccccc2)cc1` [4-nitrophenyl phenylphosphonate], the “stability of solutions of the ammonium salt” value in series [5] (concentrations to 0.1 M, 0°-4° C.) is “stable in concentrations to 0.1 M for several weeks at 0°-4 °C”. Besides, the “stability as the dry ammonium salt” value in series [5] (dry ammonium salt) was “stable indefinitely as the dry ammonium salt”. Moreover, in series [5] (in solution), the “stability in solution compared with 4-nitrophenyl phosphate” value is listed as “much more stable in solution than is 4-nitrophenyl phosphate”.
